This passage reports Kd results from ChEMBL document CHEMBL5214998, “Development of Macrocyclic PRMT5-Adaptor Protein Interaction Inhibitors” (J Med Chem, 2022).

Each structure is given as a SMILES string. Numbered stars: 1 amine (or outer) side, 2 acyl side, 3 side chain; on linkers, the order of the positions; unused ones are H or OH. Bridge positions count the residues as written; N and C are the ends. Square brackets hold non-standard residues; d marks the D form. Peptide text beside a SMILES is read from it. * marks the point of attachment. FITC = O=C1OC2(c3ccc(O)cc3Oc3cc(O)ccc32)c2ccc(NC(=S)*)cc21; Phe(4-NO2) = N[C@@H](Cc1ccc([N+](=O)[O-])cc1)C(=O)O; Phe(3,4-F2) = N[C@@H](Cc1ccc(F)c(F)c1)C(=O)O; Bip = N[C@@H](Cc1ccc(-c2ccccc2)cc1)C(=O)O; Phe(4-Br) = N[C@@H](Cc1ccc(Br)cc1)C(=O)O; Phe(4-Cl) = N[C@@H](Cc1ccc(Cl)cc1)C(=O)O; Hag = O=C([C@H](CCC=[*:3])N[*:1])[*:2]; Phe(3-F) = N[C@@H](Cc1cccc(F)c1)C(=O)O; Phe(4-F) = N[C@@H](Cc1ccc(F)cc1)C(=O)O; Phe(4-I) = N[C@@H](Cc1ccc(I)cc1)C(=O)O; Gla = N[C@@H](CC(C(=O)O)C(=O)O)C(=O)O; AllylGly = C=CC[C@H](N)C(=O)O A value given as a limit tells only on which side of the number the result lay.

Sequence of PRMT5/MEP50 complex (Homo sapiens, UniProt O14744+Q9BQA1) (O14744 whole entry): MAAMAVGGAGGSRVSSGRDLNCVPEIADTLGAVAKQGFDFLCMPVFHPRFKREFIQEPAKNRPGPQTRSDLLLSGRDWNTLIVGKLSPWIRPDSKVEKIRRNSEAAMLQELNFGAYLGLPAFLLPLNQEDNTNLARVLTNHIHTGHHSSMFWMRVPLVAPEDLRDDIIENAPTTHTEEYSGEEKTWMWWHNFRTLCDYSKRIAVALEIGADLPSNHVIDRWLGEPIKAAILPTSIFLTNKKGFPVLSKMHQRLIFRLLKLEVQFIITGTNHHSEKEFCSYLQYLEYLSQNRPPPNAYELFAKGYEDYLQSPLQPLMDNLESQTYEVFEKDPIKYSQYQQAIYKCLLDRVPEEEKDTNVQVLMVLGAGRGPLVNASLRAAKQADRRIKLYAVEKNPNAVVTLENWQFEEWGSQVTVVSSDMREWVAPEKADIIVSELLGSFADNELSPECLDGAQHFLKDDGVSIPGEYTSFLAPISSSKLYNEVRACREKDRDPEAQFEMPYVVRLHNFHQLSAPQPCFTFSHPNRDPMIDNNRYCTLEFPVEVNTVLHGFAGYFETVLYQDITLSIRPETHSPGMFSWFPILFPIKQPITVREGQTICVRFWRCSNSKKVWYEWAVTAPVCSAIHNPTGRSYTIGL
Sequence of PRMT5/MEP50 complex (Homo sapiens, UniProt O14744+Q9BQA1) (Q9BQA1 whole entry): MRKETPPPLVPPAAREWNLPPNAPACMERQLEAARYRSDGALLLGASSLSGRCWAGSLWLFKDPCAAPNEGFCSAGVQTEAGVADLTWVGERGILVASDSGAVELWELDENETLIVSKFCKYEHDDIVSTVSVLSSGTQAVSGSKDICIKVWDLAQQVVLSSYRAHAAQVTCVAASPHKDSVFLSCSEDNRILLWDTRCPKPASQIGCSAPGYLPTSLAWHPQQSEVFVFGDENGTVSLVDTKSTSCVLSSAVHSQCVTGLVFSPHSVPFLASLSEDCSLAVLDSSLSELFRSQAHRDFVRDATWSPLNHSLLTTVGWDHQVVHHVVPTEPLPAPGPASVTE

In one test the target is PRMT5/MEP50 complex (Homo sapiens, UniProt O14744). The test can be described thus: (§1) Binding affinity to PRMT5/MEP50 (unknown origin) assessed as dissociation constant by FITC- Competitive binding assay. The format is protein-complex assay.
Sequence of PRMT5/MEP50 complex (Homo sapiens, UniProt O14744) (O14744 whole entry): as the sequence (O14744 whole entry) above
Sequence of PRMT5/MEP50 complex (Homo sapiens, UniProt O14744) (Q9BQA1 whole entry, further chain): as the sequence (Q9BQA1 whole entry) above
As to `CC(=O)N[C@H](C(=O)N1CCC[C@H]1C(=O)NCC(=O)N[C@@H](CCC(N)=O)C(=O)N[C@@H](Cc1ccc([N+](=O)[O-])cc1)C(=O)N[C@@H](CC(=O)O)C(=O)N[C@@H](CC(=O)O)C(=O)N[C@@H](C)C(=O)N[C@@H](CC(=O)O)C(=O)N[C@@H](CCCCNC(=S)Nc1ccc2c(c1)C(=O)OC21c2ccc(O)cc2Oc2cc(O)ccc21)C(N)=O)C(C)C` (Ac-VPGQ[Phe(4-NO2)]DDADK(FITC)-NH2), the Kd came to 232 nM.
The same measure, in the same setting: the figure for `CC(C)[C@H](NC(=O)[C@H](CCCNC(=N)N)NC(=O)[C@H](CO)NC(=O)COCCOCCNC(=S)Nc1ccc2c(c1)C(=O)OC21c2ccc(O)cc2Oc2cc(O)ccc21)C(=O)N[C@H](C(=O)N1CCC[C@H]1C(=O)N[C@H]1CCCC[C@@H](C(=O)N[C@@H](CC(=O)O)C(=O)N[C@@H](C)C(=O)N[C@@H](CC(=O)O)C(N)=O)NC(=O)[C@H](Cc2ccccc2)NC(=O)[C@H](CCC(N)=O)NC1=O)C(C)C` is 1290 nM.
With `CC(=O)N[C@H](C(=O)N1CCC[C@H]1C(=O)NCC(=O)N[C@@H](CCC(N)=O)C(=O)N[C@@H](Cc1ccc(Cl)cc1)C(=O)N[C@@H](CC(=O)O)C(=O)N[C@@H](CC(=O)O)C(=O)N[C@@H](C)C(=O)N[C@@H](CC(=O)O)C(=O)N[C@@H](CCCCNC(=S)Nc1ccc2c(c1)C(=O)OC21c2ccc(O)cc2Oc2cc(O)ccc21)C(N)=O)C(C)C` (Ac-VPGQ[Phe(4-Cl)]DDADK(FITC)-NH2), the dissociation constant (Kd) was determined as 250 nM.
Regarding `CC(=O)N[C@H](C(=O)N1CCC[C@H]1C(=O)NCC(=O)N[C@@H](CCC(N)=O)C(=O)N[C@@H](Cc1ccc(-c2ccccc2)cc1)C(=O)N[C@@H](CC(=O)O)C(=O)N[C@@H](CC(=O)O)C(=O)N[C@@H](C)C(=O)N[C@@H](CC(=O)O)C(=O)N[C@@H](CCCCNC(=S)Nc1ccc2c(c1)C(=O)OC21c2ccc(O)cc2Oc2cc(O)ccc21)C(N)=O)C(C)C` (Ac-VPGQ[Bip]DDADK(FITC)-NH2), the Kd is 447 nM.
Same read-out and setting: for `CC(=O)N[C@H](C(=O)N1CCC[C@H]1C(=O)NCC(=O)N[C@@H](CCC(N)=O)C(=O)N[C@@H](Cc1ccc(F)c(F)c1)C(=O)N[C@@H](CC(=O)O)C(=O)N[C@@H](CC(=O)O)C(=O)N[C@@H](C)C(=O)N[C@@H](CC(=O)O)C(=O)N[C@@H](CCCCNC(=S)Nc1ccc2c(c1)C(=O)OC21c2ccc(O)cc2Oc2cc(O)ccc21)C(N)=O)C(C)C` (Ac-VPGQ[Phe(3,4-F2)]DDADK(FITC)-NH2) the value was 412 nM.
Regarding `CC(=O)N[C@H](C(=O)N1CCC[C@H]1C(=O)NCC(=O)N[C@@H](CCC(N)=O)C(=O)N[C@@H](Cc1ccc(F)cc1)C(=O)N[C@@H](CC(=O)O)C(=O)N[C@@H](CC(=O)O)C(=O)N[C@@H](C)C(=O)N[C@@H](CC(=O)O)C(=O)N[C@@H](CCCCNC(=S)Nc1ccc2c(c1)C(=O)OC21c2ccc(O)cc2Oc2cc(O)ccc21)C(N)=O)C(C)C` (Ac-VPGQ[Phe(4-F)]DDADK(FITC)-NH2), the dissociation constant Kd came to 391 nM.
On the same count and under the same terms, for `CC(=O)N[C@H](C(=O)N1CCC[C@H]1C(=O)NCC(=O)N[C@@H](CCC(N)=O)C(=O)N[C@@H](Cc1cccc(F)c1)C(=O)N[C@@H](CC(=O)O)C(=O)N[C@@H](CC(=O)O)C(=O)N[C@@H](C)C(=O)N[C@@H](CC(=O)O)C(=O)N[C@@H](CCCCNC(=S)Nc1ccc2c(c1)C(=O)OC21c2ccc(O)cc2Oc2cc(O)ccc21)C(N)=O)C(C)C` (Ac-VPGQ[Phe(3-F)]DDADK(FITC)-NH2) the value was 654 nM.
As to `CC(=O)N[C@H](C(=O)N1CCC[C@H]1C(=O)N[C@H]1CC/C=C/C[C@@H](C(=O)N[C@@H](CC(=O)O)C(=O)N[C@@H](C)C(=O)N[C@@H](CC(=O)O)C(=O)N[C@@H](CCCCNC(=S)Nc2ccc3c(c2)C(=O)OC32c3ccc(O)cc3Oc3cc(O)ccc32)C(N)=O)NC(=O)[C@H](Cc2ccccc2)NC(=O)[C@H](CCC(N)=O)NC1=O)C(C)C` (Ac-VP[Hag]QF[AllylGly]DADK(FITC)-NH2; staple (E) 3-6), the Kd stood at 562 nM.
Consider `CC(=O)N[C@H](C(=O)N1CCC[C@H]1C(=O)NCC(=O)N[C@@H](CCC(N)=O)C(=O)N[C@@H](Cc1ccc(Cl)cc1)C(=O)N[C@@H](CC(=O)O)C(=O)N[C@@H](CC(=O)O)C(=O)N[C@@H](C)C(=O)N[C@@H](CC(C(=O)O)C(=O)O)C(=O)N[C@@H](CCCCNC(=S)Nc1ccc2c(c1)C(=O)OC21c2ccc(O)cc2Oc2cc(O)ccc21)C(N)=O)C(C)C` (Ac-VPGQ[Phe(4-Cl)]DDA[Gla]K(FITC)-NH2), for which the Kd was determined as 144 nM.
Still for that read-out and setting: the figure for `CC(=O)N[C@H](C(=O)N1CCC[C@H]1C(=O)N[C@H]1CCCCCC[C@@H](C(=O)N[C@@H](CC(=O)O)C(=O)N[C@@H](C)C(=O)N[C@@H](CC(=O)O)C(=O)N[C@@H](CCCCNC(=S)Nc2ccc3c(c2)C(=O)OC32c3ccc(O)cc3Oc3cc(O)ccc32)C(N)=O)NC(=O)[C@H](Cc2ccccc2)NC(=O)[C@H](CCC(N)=O)NC1=O)C(C)C` is more than 2000 nM; for `CC(=O)N[C@H](C(=O)N1CCC[C@H]1C(=O)NCC(=O)N[C@@H](CCC(N)=O)C(=O)N[C@@H](Cc1ccccc1)C(=O)N[C@@H](CC(=O)O)C(=O)N[C@@H](CC(=O)O)C(=O)N[C@@H](C)C(=O)N[C@@H](CC(C(=O)O)C(=O)O)C(=O)N[C@@H](CCCCNC(=S)Nc1ccc2c(c1)C(=O)OC21c2ccc(O)cc2Oc2cc(O)ccc21)C(N)=O)C(C)C` (Ac-VPGQFDDA[Gla]K(FITC)-NH2) it is 245 nM; for `CC(=O)N[C@H](C(=O)N1CCC[C@H]1C(=O)NCC(=O)N[C@@H](CCC(N)=O)C(=O)N[C@@H](Cc1ccc(Br)cc1)C(=O)N[C@@H](CC(=O)O)C(=O)N[C@@H](CC(=O)O)C(=O)N[C@@H](C)C(=O)N[C@@H](CC(=O)O)C(=O)N[C@@H](CCCCNC(=S)Nc1ccc2c(c1)C(=O)OC21c2ccc(O)cc2Oc2cc(O)ccc21)C(N)=O)C(C)C` (Ac-VPGQ[Phe(4-Br)]DDADK(FITC)-NH2) it is 317 nM.
Consider `CC(=O)N[C@H](C(=O)N1CCC[C@H]1C(=O)NCC(=O)N[C@@H](CCC(N)=O)C(=O)N[C@@H](Cc1ccc([N+](=O)[O-])cc1)C(=O)N[C@@H](CC(=O)O)C(=O)N[C@@H](CC(=O)O)C(=O)N[C@@H](C)C(=O)N[C@@H](CC(C(=O)O)C(=O)O)C(=O)N[C@@H](CCCCNC(=S)Nc1ccc2c(c1)C(=O)OC21c2ccc(O)cc2Oc2cc(O)ccc21)C(N)=O)C(C)C` (Ac-VPGQ[Phe(4-NO2)]DDA[Gla]K(FITC)-NH2), for which the Kd amounted to 78 nM.
For `CC(=O)N[C@H](C(=O)N1CCC[C@H]1C(=O)NCC(=O)N[C@@H](CCC(N)=O)C(=O)N[C@@H](Cc1ccc(I)cc1)C(=O)N[C@@H](CC(=O)O)C(=O)N[C@@H](CC(=O)O)C(=O)N[C@@H](C)C(=O)N[C@@H](CC(=O)O)C(=O)N[C@@H](CCCCNC(=S)Nc1ccc2c(c1)C(=O)OC21c2ccc(O)cc2Oc2cc(O)ccc21)C(N)=O)C(C)C` (Ac-VPGQ[Phe(4-I)]DDADK(FITC)-NH2), the Kd is 279 nM.

The next test concerns the target PRMT5/MEP50 complex (Homo sapiens, UniProt O14744+Q9BQA1). The description is as §1. Type of test: protein-complex assay.
With `CC(C)[C@H](NC(=O)[C@H](CCCNC(=N)N)NC(=O)[C@H](CO)NC(=O)COCCOCCNC(=S)Nc1ccc2c(c1)C(=O)OC21c2ccc(O)cc2Oc2cc(O)ccc21)C(=O)N[C@H](C(=O)N1CCC[C@H]1C(=O)N[C@H]1CNC(=O)C[C@H](C(=O)N[C@@H](CC(=O)O)C(=O)N[C@@H](C)C(=O)N[C@@H](CC(=O)O)C(N)=O)NC(=O)[C@H](Cc2ccccc2)NC(=O)[C@H](CCC(N)=O)NC1=O)C(C)C`, the Kd is more than 2000 nM.
Still for that read-out and setting: the figure for `CC(=O)N[C@H](C(=O)N1CCC[C@H]1C(=O)N[C@H]1CC/C=C/CC[C@H](C(=O)N[C@@H](CC(=O)O)C(=O)N[C@@H](C)C(=O)N[C@@H](CC(=O)O)C(=O)N[C@@H](CCCCNC(=S)Nc2ccc3c(c2)C(=O)OC32c3ccc(O)cc3Oc3cc(O)ccc32)C(N)=O)NC(=O)[C@H](Cc2ccccc2)NC(=O)[C@H](CCC(N)=O)NC1=O)C(C)C` is more than 2000 nM.
As for `CC(=O)N[C@H](C(=O)N1CCC[C@H]1C(=O)N[C@H]1CCCCCC[C@H](C(=O)N[C@@H](CC(=O)O)C(=O)N[C@@H](C)C(=O)N[C@@H](CC(=O)O)C(=O)N[C@@H](CCCCNC(=S)Nc2ccc3c(c2)C(=O)OC32c3ccc(O)cc3Oc3cc(O)ccc32)C(N)=O)NC(=O)[C@H](Cc2ccccc2)NC(=O)[C@H](CCC(N)=O)NC1=O)C(C)C`, the Kd was more than 2000 nM.
For the compound `CC(C)[C@H](NC(=O)[C@H](CCCNC(=N)N)NC(=O)[C@H](CO)NC(=O)COCCOCCNC(=S)Nc1ccc2c(c1)C(=O)OC21c2ccc(O)cc2Oc2cc(O)ccc21)C(=O)N[C@H](C(=O)N1CCC[C@H]1C(=O)N[C@H]1CCCC[C@H](C(=O)N[C@@H](CC(=O)O)C(=O)N[C@@H](C)C(=O)N[C@@H](CC(=O)O)C(N)=O)NC(=O)[C@H](Cc2ccccc2)NC(=O)[C@H](CCC(N)=O)NC1=O)C(C)C`, the Kd is more than 2000 nM.
Same read-out and setting: the figure for `CC(C)[C@H](NC(=O)[C@H](CCCNC(=N)N)NC(=O)[C@H](CO)NC(=O)COCCOCCNC(=S)Nc1ccc2c(c1)C(=O)OC21c2ccc(O)cc2Oc2cc(O)ccc21)C(=O)N[C@H](C(=O)N1CCC[C@H]1C(=O)N[C@H]1C/C=C/C[C@H](C(=O)N[C@@H](CC(=O)O)C(=O)N[C@@H](C)C(=O)N[C@@H](CC(=O)O)C(N)=O)NC(=O)[C@H](Cc2ccccc2)NC(=O)[C@H](CCC(N)=O)NC1=O)C(C)C` (stereo in doubt; form 2) is more than 2000 nM.
In the case of `CC(=O)N[C@H](C(=O)N1CCC[C@H]1C(=O)N[C@H]1CCCCC[C@H](C(=O)N[C@@H](CC(=O)O)C(=O)N[C@@H](C)C(=O)N[C@@H](CC(=O)O)C(=O)N[C@@H](CCCCNC(=S)Nc2ccc3c(c2)C(=O)OC32c3ccc(O)cc3Oc3cc(O)ccc32)C(N)=O)NC(=O)[C@H](Cc2ccccc2)NC(=O)[C@H](CCC(N)=O)NC1=O)C(C)C`, the Kd was more than 2000 nM.
On the same count and under the same terms, the figure for `CC(=O)N[C@H](C(=O)N1CCC[C@@H]1C(=O)N[C@H]1CCCCC[C@@H](C(=O)N[C@@H](CC(=O)O)C(=O)N[C@@H](C)C(=O)N[C@@H](CC(C(=O)O)C(=O)O)C(=O)N[C@@H](CCCCNC(=S)Nc2ccc3c(c2)C(=O)OC32c3ccc(O)cc3Oc3cc(O)ccc32)C(N)=O)NC(=O)[C@H](Cc2ccc([N+](=O)[O-])cc2)NC(=O)[C@H](CCC(N)=O)NC1=O)C(C)C` is 89 nM; for `CC(C)[C@H](NC(=O)[C@H](CCCNC(=N)N)NC(=O)[C@H](CO)NC(=O)COCCOCCNC(=S)Nc1ccc2c(c1)C(=O)OC21c2ccc(O)cc2Oc2cc(O)ccc21)C(=O)N[C@H](C(=O)N1CCC[C@H]1C(=O)N[C@H]1C/C=C/C[C@H](C(=O)N[C@@H](CC(=O)O)C(=O)N[C@@H](C)C(=O)N[C@@H](CC(=O)O)C(N)=O)NC(=O)[C@H](Cc2ccccc2)NC(=O)[C@H](CCC(N)=O)NC1=O)C(C)C` (stereo in doubt; form 1) it is more than 2000 nM.

By Kd is commonly meant the equilibrium constant for the complex coming apart.
